TGI and GI50 data for eight compounds are collected here from PubChem BioAssay (NCI).

Some test systems named below: HCT-116 colon; M14 melanoma; MALME-3M melanoma; NCI-H522 lung; OVCAR-5 ovarian; OVCAR-8 ovarian; RXF 393 renal; SF-295 CNS; SNB-75 CNS; SR leukemia.
Common to all, as to experiment: NCI anticancer screen, dose series, 48 h

Each structure is given as a SMILES string. Where “and” joins values, the source holds several entries; their conditions need not be identical. Identical values can stand only once.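 Dose response: 5 concentrations. Exposure: 48 h. Format: 96-well plates. Endpoint: linear interpolation; highest concentration if not reached. At the GI50, growth is halved. The concentration for full growth arrest is given as TGI.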

Regarding `COC(=O)/C=C(\C(=O)OC)c1c2c3c(cc(OC)c(OC)c3c3ccccc13)CCN2C`, the TGI with HCT-116 colon was more than 100 µM; with M14 melanoma, more than 100 µM; in the assay on MALME-3M melanoma, more than 100 µM; in the assay with NCI-H522 lung, 74 µM; in the assay on OVCAR-5 ovarian it was more than 100 µM; with OVCAR-8 ovarian it was more than 100 µM. In addition, the TGI with RXF 393 renal, in the assay with SF-295 CNS, in the assay with SNB-75 CNS and with SR leukemia was more than 100 µM throughout.
For `COc1ccc2c(c1)[nH]c(=O)c1c3cc(OC)ccc3cn21`, the GI50 was less than 0.01 µM with HCT-116 colon; less than 0.01 µM in the assay with M14 melanoma; 0.139 µM in the assay on MALME-3M melanoma; 0.022 µM in the assay on NCI-H522 lung; 0.0545 µM in the assay with OVCAR-5 ovarian; 0.0343 µM in the assay with OVCAR-8 ovarian. Moreover, the GI50 in the assay on RXF 393 renal is less than 0.01 µM; with SF-295 CNS, less than 0.01 µM; with SNB-75 CNS, 0.0187 µM; in the assay on SR leukemia it was less than 0.0106 µM. Further, the TGI came to 1.08 µM with HCT-116 colon; 1.34 µM in the assay on M14 melanoma; 1.88 µM with MALME-3M melanoma; 0.564 µM with NCI-H522 lung; 2.3 µM in the assay with OVCAR-5 ovarian; 1.57 µM in the assay with OVCAR-8 ovarian. Besides, the TGI was 0.274 µM in the assay on RXF 393 renal, 0.18 µM with SF-295 CNS, 1.61 µM with SNB-75 CNS and 0.062 µM with SR leukemia.
As for `Clc1cccc(Cl)c1C1CSc2ccccc2N=C1c1ccccc1` (configuration not stated), the GI50 with HCT-116 colon was 1.71 µM; in the assay on M14 melanoma it was 8.44 µM; in the assay with MALME-3M melanoma it was 10.9 µM; in the assay on NCI-H522 lung, 3.52 µM; with OVCAR-5 ovarian, 3.88 µM; with OVCAR-8 ovarian, 3.34 µM. Moreover, the GI50 is 9.74 µM in the assay on RXF 393 renal, 13.6 µM in the assay on SF-295 CNS, 2.53 µM in the assay on SNB-75 CNS and 3.42 µM with SR leukemia. For the same compound, the TGI with HCT-116 colon came out at 3.32 µM; in the assay with M14 melanoma, 23.1 µM; in the assay with MALME-3M melanoma it was 27.8 µM; with NCI-H522 lung it was 14.5 µM; with OVCAR-5 ovarian, 13.2 µM; with OVCAR-8 ovarian, 10.2 µM. In addition, the TGI with RXF 393 renal is 24.1 µM; in the assay with SF-295 CNS it was 31.7 µM; with SNB-75 CNS, 17.2 µM; in the assay with SR leukemia it was more than 100 µM.
For `O=C1Nc2c(C(F)(F)F)cccc2[C@@]1(c1ccc(O)cc1)c1ccc(OC(F)(F)F)cc1`, the GI50 with HCT-116 colon is less than 0.0172 µM; with M14 melanoma, 0.0537 µM; in the assay with MALME-3M melanoma it was 12.4 µM; in the assay with NCI-H522 lung, less than 0.01 µM; in the assay with OVCAR-5 ovarian, 0.0333 µM; with OVCAR-8 ovarian it was less than 0.01 µM. The GI50 with RXF 393 renal is less than 0.0107 µM; in the assay on SF-295 CNS it was 0.0193 µM; in the assay with SNB-75 CNS it was less than 0.01 µM; with SR leukemia, 10.5 µM. Moreover, the TGI is 14.1 µM in the assay on M14 melanoma; 25 µM with MALME-3M melanoma; less than 0.0194 µM with NCI-H522 lung; 16 µM in the assay with OVCAR-5 ovarian; 0.0102 µM in the assay on OVCAR-8 ovarian; less than 0.0232 µM in the assay with RXF 393 renal. Moreover, the TGI in the assay on SF-295 CNS was 0.0469 µM; in the assay with SNB-75 CNS it was less than 0.0147 µM; in the assay on SR leukemia, 29.5 µM.
In the case of `COc1ccc(C2CC(c3cc(C)ccc3O)=NC(N)=N2)cc1` (configuration not stated), the TGI in the assay on HCT-116 colon, in the assay with M14 melanoma, in the assay on MALME-3M melanoma, in the assay on NCI-H522 lung, in the assay on OVCAR-5 ovarian and in the assay on OVCAR-8 ovarian was more than 100 µM throughout. Besides, the TGI in the assay with RXF 393 renal, with SF-295 CNS, in the assay on SNB-75 CNS and in the assay on SR leukemia was more than 100 µM each time.
With `NC1CCC(Nc2nc(NCc3ccc(-c4cccs4)nc3)c3ncn(C4CCCC4)c3n2)CC1` (configuration not stated), the GI50 in the assay with HCT-116 colon is 0.0332 µM; in the assay on M14 melanoma, 0.0258 µM; in the assay with MALME-3M melanoma, 0.122 µM; in the assay on NCI-H522 lung it was less than 0.016 µM; in the assay with OVCAR-5 ovarian, 0.0302 µM; in the assay on OVCAR-8 ovarian it was 0.0504 µM. The GI50 was 0.0148 µM with RXF 393 renal, 0.0819 µM in the assay with SF-295 CNS, 0.016 µM in the assay with SNB-75 CNS and 0.0328 µM in the assay with SR leukemia. For the same compound, the TGI came to 1.15 µM with HCT-116 colon; 0.337 µM with M14 melanoma; 0.523 µM in the assay with MALME-3M melanoma; 0.049 µM in the assay on NCI-H522 lung; 2.58 µM with OVCAR-5 ovarian; 12.9 µM in the assay with OVCAR-8 ovarian. The TGI with RXF 393 renal is 0.0378 µM; in the assay on SF-295 CNS, 0.699 µM; with SNB-75 CNS it was 0.0588 µM; with SR leukemia it was 0.582 µM.
On to `CC1=CC(=C(c2ccc(N)cc2)c2ccc(N)cc2)C=CC1=N`, for which the GI50 was 0.457 µM and 2.8 µM in the assay with HCT-116 colon; 0.867 µM and 3.79 µM with M14 melanoma; 0.771 µM in the assay with MALME-3M melanoma; 1.8 µM and 2.26 µM with NCI-H522 lung; 3.42 µM with OVCAR-5 ovarian; 0.759 µM and 1.51 µM in the assay on OVCAR-8 ovarian. Besides, the GI50 was 3.17 µM and 5.67 µM with RXF 393 renal; 1.03 µM and 1.32 µM in the assay on SF-295 CNS; 0.428 µM and 0.455 µM and 2.31 µM in the assay with SNB-75 CNS. Also, the TGI with HCT-116 colon was 4.15 µM and 25.7 µM and 9.14 µM; with M14 melanoma, 5.25 µM and 17.7 µM and 15.3 µM; in the assay with MALME-3M melanoma, 6.18 µM and 11.2 µM and 11.7 µM; with NCI-H522 lung, 17.8 µM and 7.03 µM; in the assay on OVCAR-5 ovarian, 14.4 µM and > 71.9 µM and > 100 µM; with OVCAR-8 ovarian, 34.5 µM and 31.4 µM and 12.4 µM. In addition, the TGI was 12.2 µM and 34.5 µM and 22.9 µM with RXF 393 renal; 5.82 µM and 7.65 µM and 6.06 µM in the assay on SF-295 CNS; more than 58.8 µM in the assay with SR leukemia.
In the case of `Cl.Fc1c[c-]c(-c2ccccn2)c(F)c1.[Pt].c1ccc(P(c2ccccc2)C([PH+](c2ccccc2)c2ccccc2)[PH+](c2ccccc2)c2ccccc2)cc1`, the GI50 with HCT-116 colon was 2.72 µM; with M14 melanoma it was 3.13 µM; in the assay on MALME-3M melanoma, 2.5 µM; in the assay with NCI-H522 lung, 2.62 µM; in the assay on OVCAR-5 ovarian, 2.97 µM; in the assay with OVCAR-8 ovarian it was 2.83 µM. Moreover, the GI50 is 3.09 µM in the assay on RXF 393 renal, 3.46 µM with SF-295 CNS, 2.01 µM in the assay on SNB-75 CNS and 2.61 µM with SR leukemia. Besides, the TGI in the assay with HCT-116 colon was 12.3 µM; in the assay on M14 melanoma it was 53 µM; with MALME-3M melanoma, 7.3 µM; in the assay on NCI-H522 lung it was 9.86 µM; with OVCAR-5 ovarian, more than 100 µM; in the assay on OVCAR-8 ovarian, 38.5 µM. Further, the TGI in the assay with RXF 393 renal is 15.1 µM; in the assay with SF-295 CNS, 14.7 µM; in the assay with SNB-75 CNS it was 9.5 µM; in the assay with SR leukemia, more than 100 µM.
